Data published in patent US20220265591A1, “USE OF AN OSMOLYTE IN MANUFACTURE OF A MEDICAMENT FOR TREATMENT OF OCULAR DISORDERS” (SINGAPORE HEALTH SERVICES PTELTD, priority 2019, published 2022).
“Also recorded” adds a separate entry of the source. Where two headings read alike, the source gives them in different places.

Assays:
[1] = biological target: T1, TGFBIp611-633 G623R peptide (Homo sapiens, UniProt Q15582, G623R); test: Circular Dichroism assay (θ[218]), inhibition of amyloid fibrillation; format: biochemical
T1 construct: The 23-amino acid long peptide (TGFBIp 611-633 c.623 G>R) from the 4th FAS1 domain; purchased Synpeptide Co Ltd, Shanghai, China; host or cells: synthetic peptide
Protocol: The peptide samples were collected 0.1 cm path length quartz cuvettes and examined in a Chirascan™-plus Spectropolarimeter (Applied Photophysics Limited, UK). Spectra were recorded from 260 nm to 190 nm in 0.1 nm steps at a scan rate of 50 nm/min. The final spectrum was the average of three scans as per the manufacturer's recommendation. The Mean Residual Weight (MRW) ellipticity ([θ]mrw values) at wavelength λ was calculated using the following equation (i): […]
whereby θλ is the observed ellipticity at a particular wavelength (degrees), I is the path length (cm), and c is the concentration (g/ml). Secondary structures of the protein were analyzed using CDNN software.
The θ[218] values that determine the β-sheet secondary structure were used to calculate the percentage inhibition in cross β-sheet in the untreated and osmolyte-treated peptide samples at various time points. Percentage inhibition for each osmolyte treatment per time point was calculated by normalizing the [θ]218 values of osmolyte treatment with the [θ]218 values of the untreated samples and expressed as a percentage.
Circular Dichroism (CD) spectroscopy was performed to study the changes in the secondary structure of the peptides. The TGFBIp^611-633 G623R peptides were treated with 200 mM and 320 mM of taurine in PBS buffer at pH 7.0 for 24 h, 48 h and 72 h, respectively. While the TGFBIp^611-633 N622K peptides were treated with 200 mM and 320 mM of taurine in PBS buffer at pH 7.0 for 72 h, 96 h, 120 h, 144 h, 192 h, 216 h, and 240 h, respectively. The treatment solutions were studied by far UV-CD assay.

[2] = biological target: T2, preformed amyloid fibrils from TGFBIp611-633 G623R peptide (Homo sapiens, UniProt Q15582, G623R); test: ThT fluorescence assay, dissolution of preformed amyloid fibrils; format: biochemical; conditions: for inhibition at 200000 µM: preformed fibrils, read-out: % Inhibition (mean ± SD) n = 3, dissolution of amyloid fibrils, ThT fluorescence; for % Dissolution at final time point, ThT: TGFBIp-G623R preformed fibrils
T2 construct: The 23-amino acid long peptide (TGFBIp 611-633 c.623 G>R) from the 4th FAS1 domain; purchased Synpeptide Co Ltd, Shanghai, China; host or cells: synthetic peptide
Protocol: The TGFBIp^611-633 G623R peptides were incubated in PBS for 24 hours, allowed to form uniform amyloid fibrils. The TGFBIp^611-633 G623R peptide solution was then subjected to Circular Dichroism spectroscopy to confirm the formation of amyloid fibrils.
The preformed amyloid fibril solution incubated with PBS was used as a control.
The peptide samples collected at the various time points above were treated with 30 μM ThT in PBS buffer at pH 5.5 in a 96-well microplate for ThT fluorescence assay. The microplate was excited at […] and the resulting emission fluorescence at 485 nm was measured using a microplate reader (Tecan Infinite M200 Pro, CA, USA).
The preformed amyloid fibrils were treated with taurine at a concentration of 200 mM and 320 mM for up to 72 hours, respectively. The preformed amyloid fibrils incubated with PBS were used as controls.
The samples were collected at 24 h, 48 h and 72 h after treatment for the TGFBIp^611-633 G623R peptides, and at 24 h, 48 h, 96 h and 144 h after treatment for the TGFBIp^611-633 N622K peptides. The samples were then treated with 30 μM ThT in PBS buffer at pH 5.5 in a 96-well microplate for ThT fluorescence assay. The microplate was excited at 445 nm and the resulting emission fluorescence at 485 nm was measured using a microplate reader.

[3] = biological target: T3, TGFBIp 611-633 c.623 G>R fibrils (Homo sapiens, UniProt Q15582, G623R); test: Transmission Electron Microscopy of preformed fibrils; conditions: 72 hours treatment
T3 construct: The 23-amino acid long peptide (TGFBIp 611-633 c.623 G>R) from the 4th FAS1 domain; purchased Synpeptide Co Ltd, Shanghai, China; host or cells: synthetic peptide
Protocol: The disaggregation of preformed amyloid fibrils was also verified by TEM analysis as illustrated in FIG. 8B. Morphological analysis of the TGFBIp 611-633 c.623 G>R fibrils before and after treatment with osmolytes for 72 hours was investigated by Transmission electron microscopy (TEM) with a JEOL JEM-1010 transmission electron microscope using Digital Micrograph™ 1.81.78 for GMS 1.8.0 (Gatan, Pleasanton, Calif.) at the Singhealth-core Electron Microscopy facility. 10 μl of amyloid fibril samples with and without osmolyte treatment were applied onto Formvar-carbon coated 300-mesh-size nickel grids. The samples were stained with Uranyl acetate solution, washed, dried, and observed at magnifications 8000-50000× at 80 kV.

[4] = 200 mM, 24 h, read-out: % Inhibition (mean ± SD) n = 3, θ[218] circular dichroism
[5] = 200 mM, 48 h, read-out: % Inhibition (mean ± SD) n = 3, θ[218] circular dichroism
[6] = 200 mM, 72 h, read-out: % Inhibition (mean ± SD) n = 3, θ[218] circular dichroism

T1 sequence (Q15582 611-633 G623R limits assumed): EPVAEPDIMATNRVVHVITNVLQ

inhibition at 200000 µM [1, 4] [%] | inhibition at 200000 µM [1, 5] [%] | inhibition at 200000 µM [1, 6] [%] | inhibition at 200000 µM ([2]; 200 mM, 24 h) [%] | inhibition at 200000 µM ([2]; 200 mM, 48 h) [%] | inhibition at 200000 µM ([2]; 200 mM, 72 h) [%] | % Inhibition at final time point, CD ([1]; TGFBIp-G623R, 200 mM, final time point) [%] | inhibition at 200000 µM ([1]; TGFBIp-G623R, 200 mM, final time point, read-out: % Inhibition at final time point, CD) [%] | % Inhibition at final time point, CD ([1]; TGFBIp-G623R, 320 mM, final time point) [%] | inhibition at 320000 µM ([1]; TGFBIp-G623R, 320 mM, final time point, read-out: % Inhibition at final time point, CD) [%] | % Dissolution at final time point, ThT ([2]; 200 mM) [%] | % Dissolution at final time point, ThT ([2]; 200 mM, listed as taurine) [%] | % Dissolution at final time point, ThT ([2]; 320 mM) [%] | % Dissolution at final time point, ThT ([2]; 320 mM, listed as taurine) [%] | SMILES | inhibitory effect on fibrillation compared among the four osmolytes, CD ([1]; 200 mM) | TEM morphology of fibrils [3]
19 | 23 | 57 | 14 ± 4 | 48 ± 6 | 64 |  |  |  |  |  |  |  |  | OC[C@H]1O[C@H](OC[C@H]2O[C@H](O[C@]3(CO)O[C@H](CO)[C@@H](O)[C@@H]3O)[C@H](O)[C@@H](O)[C@@H]2O)[C@H](O)[C@@H](O)[C@H]1O [Raffinose, raffinose] | maximum inhibition; also recorded: maximum inhibitory effect | reduction in density of ordered amyloid fibrils was evident
~25 | ~54 | ~56 | 23 ± 1 | 52 ± 5 | 61 | 42 | 41 | 63 | 61 | 63 | 64 | 83 | 83 | NCCS(=O)(=O)O [Taurine, taurine] |  | reduction in density of ordered amyloid fibrils was evident
8 | 19 | 34 | 4 ± 3 | 34 ± 11 | 37 ± 17 |  |  |  |  |  |  |  |  | C[N+](C)(C)CC(=O)O [Betaine, betaine] |  | reduction in density of ordered amyloid fibrils was evident
~17 | ~43 | ~57 | 24 ± 3 | 47 ± 4 | 53 ± 3 |  |  |  |  |  |  |  |  | CNCC(=O)O [Sarcosine, sarcosine] | maximum inhibition | reduction in density of ordered amyloid fibrils was evident
